# In PubChem BioAssay (NCI):
#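 These data come from cells grown in 96-well plates and exposed to compound for 48 hours at five concentrations. GI50 is the concentration that inhibits growth by half. At the TGI there is no net growth.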
# What was measured:
# Assay in all cases: NCI-60 cell line screen, 48 h
# OVCAR-4 ovarian = system: OVCAR-4 ovarian
# SF-295 CNS = system: SF-295 CNS
# SK-MEL-28 melanoma = system: SK-MEL-28 melanoma
# HCC-2998 colon = system: HCC-2998 colon
# M14 melanoma = system: M14 melanoma
# LOX IMVI melanoma = system: LOX IMVI melanoma
# SF-268 CNS = system: SF-268 CNS
# HL-60(TB) leukemia = system: HL-60(TB) leukemia
# OVCAR-3 ovarian = system: OVCAR-3 ovarian
# NCI/ADR-RES ovarian = system: NCI/ADR-RES ovarian
# SNB-19 CNS = system: SNB-19 CNS
# NCI-H522 lung = system: NCI-H522 lung
# IGROV1 ovarian = system: IGROV1 ovarian
# CAKI-1 renal = system: CAKI-1 renal
# HT29 colon = system: HT29 colon
# ACHN renal = system: ACHN renal
# UACC-257 melanoma = system: UACC-257 melanoma
# DU-145 prostate = system: DU-145 prostate
# SF-539 CNS = system: SF-539 CNS
# MDA-MB-468 breast = system: MDA-MB-468 breast
# MDA-MB-435 = system: MDA-MB-435
# KM12 colon = system: KM12 colon
# T-47D breast = system: T-47D breast
# NCI-H23 lung = system: NCI-H23 lung
# CCRF-CEM leukemia = system: CCRF-CEM leukemia
# RPMI-8226 leukemia = system: RPMI-8226 leukemia
# MDA-MB-231 breast = system: MDA-MB-231 breast
# OVCAR-8 ovarian = system: OVCAR-8 ovarian
# SNB-75 CNS = system: SNB-75 CNS
# SK-MEL-2 melanoma = system: SK-MEL-2 melanoma
smiles,measurement,setting,value
CC(=C(c1ccc(OCCN2CCCCC2)cc1)c1ccc(OCCN2CCCCC2)cc1)c1ccccc1,GI50,OVCAR-4 ovarian,7.66 µM
same,TGI,OVCAR-4 ovarian,> 21.8 µM
same,GI50,SF-295 CNS,3.52 µM
same,TGI,SF-295 CNS,7.17 µM
same,GI50,SK-MEL-28 melanoma,3.62 µM
same,TGI,SK-MEL-28 melanoma,6.68 µM
same,GI50,HCC-2998 colon,4.7 µM
same,TGI,HCC-2998 colon,21 µM
same,GI50,M14 melanoma,3.95 µM
same,TGI,M14 melanoma,8.32 µM
same,GI50,LOX IMVI melanoma,3.48 µM
same,TGI,LOX IMVI melanoma,6.59 µM
same,GI50,SF-268 CNS,5.56 µM
same,TGI,SF-268 CNS,> 21.8 µM
same,GI50,HL-60(TB) leukemia,2.67 µM
same,TGI,HL-60(TB) leukemia,7.09 µM
same,GI50,OVCAR-3 ovarian,3.84 µM
same,TGI,OVCAR-3 ovarian,17.2 µM
same,GI50,NCI/ADR-RES ovarian,12.1 µM
same,TGI,NCI/ADR-RES ovarian,> 21.8 µM
same,GI50,SNB-19 CNS,6.88 µM
same,TGI,SNB-19 CNS,> 21.8 µM
same,GI50,NCI-H522 lung,3.26 µM
same,TGI,NCI-H522 lung,7.85 µM
same,GI50,IGROV1 ovarian,9.78 µM
same,TGI,IGROV1 ovarian,> 21.8 µM
same,GI50,CAKI-1 renal,5.01 µM
same,TGI,CAKI-1 renal,> 21.8 µM
same,GI50,HT29 colon,3.77 µM
same,TGI,HT29 colon,11.7 µM
same,GI50,ACHN renal,5.2 µM
same,TGI,ACHN renal,17.2 µM
same,GI50,UACC-257 melanoma,3.18 µM
same,TGI,UACC-257 melanoma,6.3 µM
same,GI50,DU-145 prostate,12.4 µM
same,TGI,DU-145 prostate,> 21.8 µM
same,GI50,SF-539 CNS,3.39 µM
same,TGI,SF-539 CNS,6.39 µM
same,GI50,MDA-MB-468 breast,3.79 µM
same,TGI,MDA-MB-468 breast,9.45 µM
same,GI50,MDA-MB-435,3.25 µM
same,TGI,MDA-MB-435,6.88 µM
same,GI50,KM12 colon,8.17 µM
same,TGI,KM12 colon,> 21.8 µM
same,GI50,T-47D breast,2.55 µM
same,TGI,T-47D breast,6.6 µM
same,GI50,NCI-H23 lung,12.5 µM
same,TGI,NCI-H23 lung,> 21.8 µM
same,GI50,CCRF-CEM leukemia,5.2 µM
same,TGI,CCRF-CEM leukemia,21.7 µM
same,GI50,RPMI-8226 leukemia,6.54 µM
same,TGI,RPMI-8226 leukemia,> 21.8 µM
same,GI50,MDA-MB-231 breast,4 µM
same,TGI,MDA-MB-231 breast,9.17 µM
same,GI50,OVCAR-8 ovarian,> 21.8 µM
same,TGI,OVCAR-8 ovarian,> 21.8 µM
same,GI50,SNB-75 CNS,3.79 µM
same,TGI,SNB-75 CNS,> 21.8 µM
same,GI50,SK-MEL-2 melanoma,3.85 µM
